The results in this text go back to patent US11925690B2, “Bifunctional molecules for targeting Rpn11” (AMPHISTA THERAPEUTICS LTD, priority 2018, dated 2024).

Common to all, as to format: cell-based
In one assay the target is Brd2 (Homo sapiens, UniProt P25440). Put plainly: Time-dependent BET degradation, immunoblot. Also on record: endogenous in cells; host or cells: HEK293 (CRL-1573), HeLa (CCL-2). The note with it: HeLa, Brd2, 1 μM. The protocol: (§1) Immunoblotting. Proteins were separated by SDS-PAGE on NuPage 4-12% Bis-Tris gels, followed by transfer to Amersham Protran 0.45 NC nitrocellulose membrane (GE Healthcare) using wet transfer. Membranes were blocked using 5% w/v milk in Tris-buffered saline (TBS) with 0.1% Tween-20. Blots were probed (overnight at 4 °C) using anti-Brd2 (Abcam ab139690, 1:2,000 dilution), anti-Brd3 (Abcam ab50818, 1:500 dilution), and anti-Brd4 (Abcam ab128874, 1:1,000 dilution) primary antibodies, as appropriate. The next day, blots were washed with TBST and incubated (1 h at Room temperature) with anti-Tubulin hFAB-rhodamine (BioRad, 12004166) primary antibody, and either anti-rabbit IRDye 800CW (Licor 1:1,000 dilution) or anti-mouse IRDye 800CW (Licor 1:1,000 dilution) secondary antibody. Blots were developed using a Bio-Rad ChemiDoc MP Imaging System, and band quantification was performed using Image Studio software (LiCor). Band intensities were normalized to the tubulin loading control and reported as % of the average 0.1% DMSO vehicle intensity. Degradation data was plotted and analysed using Prism (Graphpad, version 8).
HEK293 (0.5×10^6) cells were seeded in standard 6-well plates (2 mL medium) overnight before treatment with compounds at 1 μM concentration, with a final DMSO concentration of 0.1% v/v. After incubation for the desired time (0-24 hrs), cells were washed with DPBS (Gibco) and lysed using 85 μL RIPA buffer (Sigma-Aldrich) supplemented with complete Mini EDTA-free protease inhibitor cocktail (Roche) and benzonase. Lysates were clarified by centrifugation (20000 g, 10 min, 4° C.) and the total protein content of the supernatant was quantified using a Bradford colorimetric assay. Samples were prepared using equal amounts of total protein and LDS sample buffer (Invitrogen). Band intensities were normalized to the tubulin loading control and reported as % of the average 0.1% DMSO vehicle intensity. Degradation data was plotted and analysed using Prism (Graphpad, version 8).
MZ1 and 11JQ17 were used at 1 μM (4 h) for positive and negative controls, respectively. […]

For assay [1], the target named is T1, Brd4 (Homo sapiens, UniProt O60885).
T1 construct: immunoblot analysis of Brd4 following 4 h treatment of HEK293 cells; endogenous in cells; host or cells: HEK293 (CRL-1573)
The assay can be described thus: Mechanistic evaluation: Brd4 degradation after inhibitor pre-treatment. As to conditions: HEK293, 1 μM degrader 4 h. The protocol: HeLa (5×10^5) and HEK293 (1×10^6) cells were seeded in standard 6-well plates (2 mL medium) overnight before pre-treatment with inhibitors (10 μM bortezomib, 10 μM capzimin, 10 μM JQ1). After a 0.5 h pre-incubation time, cells were subsequently treated with vehicle, 1 μM MZ1 or 1 μM 11JQ15, yielding a final overall DMSO concentration of 0.2% v/v. After 4 h incubation, cells were washed with DPBS (Gibco) and lysed using 85 μL RIPA buffer (Sigma-Aldrich) supplemented with cOmplete Mini EDTA-free protease inhibitor cocktail (Roche) and benzonase. Lysates were clarified by centrifugation (20000 g, 10 min, 4° C.) and the total protein content of the supernatant was quantified using a Bradford colorimetric assay. Samples were prepared using equal amounts of total protein and LDS sample buffer (Invitrogen).
Brd4 band intensities were normalized to tubulin loading control and reported in FIG. 6B as % of the average 0.1% DMSO vehicle intensity. Each bar is mean±SEM of three independent experiments performed in duplicate (n=3).

Assay [2] addresses T1, Brd4. Put plainly: Immunoblot analysis of Brd4 in HEK293 cells (prodrug activity, negative SAR). The note with it: HEK293, 1 μM, 4 h, n=3. The protocol: as §1, with “8). […]” for “8).”
HEK293 (1×10^6) cells incubated with DMSO, 1 μM 11JQ15 or 1 μM 11JQ17 for 4 h with a final DMSO concentration of 0.1% v/v. […] Degradation data was plotted and analysed using Prism (Graphpad, version 8), where bars are mean±SEM of three independent experiments.
On the technique in general: Immunoblotting shows a protein as a band on a membrane.

A further assay concerns HEK293 cells. The assay can be described thus: Unbiased whole proteome analysis by TMT-labelling MS. The note with it: HEK293, 1 μM, 4 h, n=3. The protocol:
HEK293 (2.2×10 6) cells were seeded in 10 cm plates (10 mL medium) overnight before treatment with 1 μM compound for a final DMSO concentration of 0.1% v/v. After 4 h incubation time, cells were washed with 2× with DPBS (Gibco) and lysed using 500 μL lysis buffer (100 mM Tris, 4% (w/v) SDS, pH 8.0) supplemented with cOmplete Mini EDTA-free protease inhibitor cocktail (Roche) and benzonase. Lysates were briefly sonicated (2×10 s), clarified by centrifugation (20000 g, 10 min, 4° C.) and the total protein content of the supernatant was quantified using a BCA assay (Thermo Fisher Scientific).
Sample processing, digestion, desalting, labelling, and fractionation were performed at Fingerprint Proteomics (University of Dundee) as described previously [Gadd et al. 10.1038/nchembio.2329]. FIG. 7 depicts fold change of abundance of 7882 proteins comparing 11JQ15 to DMSO treatment (left) and comparing 1 μM 11JQ17 to DMSO treatment (right), as well as their respective p-values (t-test; n=3).

Sequence of Brd2 (P25440 whole entry): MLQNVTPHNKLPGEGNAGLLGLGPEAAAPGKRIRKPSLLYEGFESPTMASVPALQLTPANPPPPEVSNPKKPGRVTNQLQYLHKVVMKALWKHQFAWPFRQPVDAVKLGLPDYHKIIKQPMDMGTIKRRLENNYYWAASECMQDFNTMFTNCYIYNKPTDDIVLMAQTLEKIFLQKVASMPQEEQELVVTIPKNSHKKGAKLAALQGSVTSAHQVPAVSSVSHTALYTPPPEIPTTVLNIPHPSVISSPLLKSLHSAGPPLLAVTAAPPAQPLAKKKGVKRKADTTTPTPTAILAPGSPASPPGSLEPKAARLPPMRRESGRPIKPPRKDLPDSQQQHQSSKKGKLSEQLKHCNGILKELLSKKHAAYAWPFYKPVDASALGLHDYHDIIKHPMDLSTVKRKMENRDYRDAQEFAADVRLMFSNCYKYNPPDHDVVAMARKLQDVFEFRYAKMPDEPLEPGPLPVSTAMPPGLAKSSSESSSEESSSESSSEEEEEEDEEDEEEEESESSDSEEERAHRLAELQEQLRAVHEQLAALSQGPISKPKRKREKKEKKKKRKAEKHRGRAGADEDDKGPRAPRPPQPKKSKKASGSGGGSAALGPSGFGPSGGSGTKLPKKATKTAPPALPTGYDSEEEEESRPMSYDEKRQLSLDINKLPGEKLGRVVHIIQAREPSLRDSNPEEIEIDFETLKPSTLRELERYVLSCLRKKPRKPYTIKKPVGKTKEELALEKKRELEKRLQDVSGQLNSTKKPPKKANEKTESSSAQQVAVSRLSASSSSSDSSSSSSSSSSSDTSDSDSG

As for `Cc1sc2c(c1C)C(c1ccc(Cl)cc1)=N[C@@H](CC(=O)NCCCCNC(=O)c1cc(S)c3ncc(C(=O)NCCc4nccs4)cc3c1)c1nnc(C)n1-2` [Example 11JQ7], the Dmax (in general, the greatest extent of degradation seen) at 1 µM at Brd2 was determined as 50%. The “Abs. T1/2” value at Brd2 (time to deplete 50% of the protein relative to DMSO) is 4 h. On Brd2 (time to reach 50% of the Dmax), the “T1/2” value was determined as 4 h.
With `Cc1sc2c(c1C)C(c1ccc(Cl)cc1)=N[C@@H](CC(=O)NCCOCCNC(=O)c1cc(SC(=O)c3ccccc3)c3ncc(C(=O)NCCc4nccs4)cc3c1)c1nnc(C)n1-2` [Example 11JQ15], on Brd4 [1] (10 μM JQ1 pre-treatment 0.5 h), the “Brd4 degradation in the presence of JQ1” value was “completely blocked”. The “Brd4 degradation in the presence of bortezomib” value on Brd4 [1] (10 μM bortezomib pre-treatment 0.5 h) is “completely blocked”. For the same molecule, the “Brd4 degradation in the presence of capzimin” value at Brd4 [1] (10 μM capzimin pre-treatment 0.5 h) is on record as “significantly blocked”. At Brd4 [2], the “Brd4 levels (FIG. 3)” value is given as “significant depletion of Brd4 levels”. Also, the “fold change of abundance of 7882 proteins vs DMSO (FIG. 7)” value with HEK293 cells is “selective degradation of Brd2, Brd3 and Brd4”.
